Experimental data published in PMC6437697 (Journal of Medicinal Chemistry, 2019).

Legend:
Test in all cases: KINOMEscan
Type in all cases: binding
Details in all cases: read-out: % control activity remaining
[1] = target: T1, MYO3B (Homo sapiens, UniProt Q8WXR4)
T1 construct: purchased Eurofins DiscoverX KINOMEscan
T1 sequence (Q8WXR4 1-1341): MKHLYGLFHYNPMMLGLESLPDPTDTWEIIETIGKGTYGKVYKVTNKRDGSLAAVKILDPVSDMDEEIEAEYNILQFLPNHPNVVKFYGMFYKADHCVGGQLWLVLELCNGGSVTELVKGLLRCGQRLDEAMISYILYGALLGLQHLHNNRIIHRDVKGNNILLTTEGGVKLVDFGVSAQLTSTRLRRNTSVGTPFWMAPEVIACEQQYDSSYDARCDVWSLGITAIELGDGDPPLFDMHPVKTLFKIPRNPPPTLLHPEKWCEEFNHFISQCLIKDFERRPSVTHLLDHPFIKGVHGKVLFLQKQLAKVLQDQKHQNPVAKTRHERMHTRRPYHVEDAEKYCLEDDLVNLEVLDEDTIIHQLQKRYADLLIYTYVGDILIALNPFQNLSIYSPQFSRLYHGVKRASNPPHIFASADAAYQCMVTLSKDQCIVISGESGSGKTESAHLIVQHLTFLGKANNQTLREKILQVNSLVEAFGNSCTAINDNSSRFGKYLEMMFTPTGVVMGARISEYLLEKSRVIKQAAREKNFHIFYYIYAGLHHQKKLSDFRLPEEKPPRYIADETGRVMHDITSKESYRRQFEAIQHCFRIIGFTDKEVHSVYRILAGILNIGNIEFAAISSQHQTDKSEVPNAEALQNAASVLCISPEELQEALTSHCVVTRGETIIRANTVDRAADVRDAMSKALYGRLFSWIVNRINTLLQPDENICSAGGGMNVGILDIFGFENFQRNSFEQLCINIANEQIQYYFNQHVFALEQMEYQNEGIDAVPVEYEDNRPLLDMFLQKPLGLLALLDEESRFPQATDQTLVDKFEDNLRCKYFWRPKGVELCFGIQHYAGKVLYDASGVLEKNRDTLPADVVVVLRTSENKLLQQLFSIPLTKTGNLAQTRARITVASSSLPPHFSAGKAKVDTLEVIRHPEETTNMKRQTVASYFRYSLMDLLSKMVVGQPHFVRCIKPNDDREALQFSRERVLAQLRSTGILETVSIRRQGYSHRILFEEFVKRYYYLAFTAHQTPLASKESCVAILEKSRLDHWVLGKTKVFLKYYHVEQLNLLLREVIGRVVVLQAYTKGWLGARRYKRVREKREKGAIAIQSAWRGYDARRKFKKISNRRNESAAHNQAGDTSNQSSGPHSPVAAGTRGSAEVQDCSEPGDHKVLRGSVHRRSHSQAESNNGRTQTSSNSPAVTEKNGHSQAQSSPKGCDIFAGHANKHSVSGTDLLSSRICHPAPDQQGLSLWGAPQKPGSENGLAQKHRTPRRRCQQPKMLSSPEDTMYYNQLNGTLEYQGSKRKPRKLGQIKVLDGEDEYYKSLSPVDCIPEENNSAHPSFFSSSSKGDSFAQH

[2] = target: T2, CSNK1D (Homo sapiens, UniProt P48730)
T2 construct: purchased Eurofins DiscoverX KINOMEscan

[3] = target: T3, EPHA6 (Homo sapiens, UniProt Q9UF33)
T3 construct: purchased Eurofins DiscoverX KINOMEscan
T3 sequence (Q9UF33 23-1036): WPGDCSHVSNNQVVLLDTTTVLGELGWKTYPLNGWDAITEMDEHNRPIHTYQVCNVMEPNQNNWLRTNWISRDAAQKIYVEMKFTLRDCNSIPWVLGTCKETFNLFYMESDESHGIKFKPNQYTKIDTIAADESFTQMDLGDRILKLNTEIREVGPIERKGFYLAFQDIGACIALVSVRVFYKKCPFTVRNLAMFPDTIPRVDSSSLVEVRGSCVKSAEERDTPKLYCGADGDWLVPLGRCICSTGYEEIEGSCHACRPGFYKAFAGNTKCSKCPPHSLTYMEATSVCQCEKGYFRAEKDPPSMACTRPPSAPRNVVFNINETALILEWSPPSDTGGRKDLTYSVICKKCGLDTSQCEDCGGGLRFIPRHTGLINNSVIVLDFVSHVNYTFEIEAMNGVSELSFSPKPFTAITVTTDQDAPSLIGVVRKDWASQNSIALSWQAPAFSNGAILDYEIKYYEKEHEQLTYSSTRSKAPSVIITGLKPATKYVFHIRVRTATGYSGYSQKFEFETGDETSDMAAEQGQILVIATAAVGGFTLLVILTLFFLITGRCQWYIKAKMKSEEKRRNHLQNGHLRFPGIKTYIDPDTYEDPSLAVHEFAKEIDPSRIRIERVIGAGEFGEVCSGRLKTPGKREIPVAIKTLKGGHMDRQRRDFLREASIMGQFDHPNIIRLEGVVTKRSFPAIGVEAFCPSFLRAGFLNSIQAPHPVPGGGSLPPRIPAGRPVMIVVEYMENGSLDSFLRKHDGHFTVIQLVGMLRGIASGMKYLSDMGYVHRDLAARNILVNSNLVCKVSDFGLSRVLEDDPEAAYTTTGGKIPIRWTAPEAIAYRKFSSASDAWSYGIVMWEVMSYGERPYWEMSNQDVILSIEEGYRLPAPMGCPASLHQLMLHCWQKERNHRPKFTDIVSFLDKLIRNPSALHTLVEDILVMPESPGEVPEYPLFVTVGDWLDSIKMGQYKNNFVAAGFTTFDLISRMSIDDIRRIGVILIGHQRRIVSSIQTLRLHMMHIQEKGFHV

[4] = target: T4, PRKX (Homo sapiens, UniProt P51817)
T4 construct: purchased Eurofins DiscoverX KINOMEscan
T4 sequence (P51817 1-358): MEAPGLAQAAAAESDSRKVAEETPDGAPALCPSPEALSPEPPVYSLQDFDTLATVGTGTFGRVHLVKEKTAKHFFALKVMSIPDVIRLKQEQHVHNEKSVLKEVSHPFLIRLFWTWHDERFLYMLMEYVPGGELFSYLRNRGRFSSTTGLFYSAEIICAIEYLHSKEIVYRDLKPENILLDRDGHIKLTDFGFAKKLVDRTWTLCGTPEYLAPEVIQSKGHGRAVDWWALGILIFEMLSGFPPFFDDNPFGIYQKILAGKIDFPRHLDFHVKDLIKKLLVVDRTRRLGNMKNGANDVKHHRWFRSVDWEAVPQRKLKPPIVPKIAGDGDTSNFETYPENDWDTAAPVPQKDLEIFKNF

[5] = target: T5, LTK (Homo sapiens, UniProt P29376)
T5 construct: purchased Eurofins DiscoverX KINOMEscan
T5 sequence (P29376 17-864): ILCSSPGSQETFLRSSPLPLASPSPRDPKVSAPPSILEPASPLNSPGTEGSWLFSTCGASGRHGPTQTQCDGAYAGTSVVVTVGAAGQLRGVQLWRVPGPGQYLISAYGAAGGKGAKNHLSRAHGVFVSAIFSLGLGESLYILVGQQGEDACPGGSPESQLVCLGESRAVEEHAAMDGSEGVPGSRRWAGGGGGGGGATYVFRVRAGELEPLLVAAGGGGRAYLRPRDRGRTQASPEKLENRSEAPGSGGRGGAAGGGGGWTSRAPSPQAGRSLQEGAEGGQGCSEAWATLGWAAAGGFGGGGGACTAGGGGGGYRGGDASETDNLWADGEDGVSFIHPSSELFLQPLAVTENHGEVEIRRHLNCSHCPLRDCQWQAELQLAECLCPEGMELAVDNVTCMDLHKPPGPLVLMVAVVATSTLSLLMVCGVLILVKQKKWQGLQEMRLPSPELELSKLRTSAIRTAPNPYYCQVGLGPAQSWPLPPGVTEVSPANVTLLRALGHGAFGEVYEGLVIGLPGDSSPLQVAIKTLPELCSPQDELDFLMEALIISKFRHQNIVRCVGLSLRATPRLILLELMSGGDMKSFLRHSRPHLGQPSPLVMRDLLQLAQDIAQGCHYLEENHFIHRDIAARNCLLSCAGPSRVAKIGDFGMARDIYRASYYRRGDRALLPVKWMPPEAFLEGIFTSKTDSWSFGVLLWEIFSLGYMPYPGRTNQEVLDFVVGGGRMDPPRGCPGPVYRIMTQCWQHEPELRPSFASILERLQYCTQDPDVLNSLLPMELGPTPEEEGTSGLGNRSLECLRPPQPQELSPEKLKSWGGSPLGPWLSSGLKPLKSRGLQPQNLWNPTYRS

T2 sequence (P48730 whole entry): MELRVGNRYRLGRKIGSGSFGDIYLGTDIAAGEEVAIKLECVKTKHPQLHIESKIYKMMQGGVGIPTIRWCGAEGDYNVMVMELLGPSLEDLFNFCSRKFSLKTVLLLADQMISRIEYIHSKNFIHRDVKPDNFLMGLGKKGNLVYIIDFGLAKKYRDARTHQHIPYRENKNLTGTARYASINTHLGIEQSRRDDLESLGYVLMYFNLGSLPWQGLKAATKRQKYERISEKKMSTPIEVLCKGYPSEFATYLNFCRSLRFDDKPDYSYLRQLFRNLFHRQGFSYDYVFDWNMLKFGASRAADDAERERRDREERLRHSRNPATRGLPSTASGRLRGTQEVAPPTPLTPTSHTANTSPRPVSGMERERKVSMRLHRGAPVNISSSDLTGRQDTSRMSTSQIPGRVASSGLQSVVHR

Compound	remaining binding at 1 µM [1]	remaining binding at 1 µM [2]	remaining binding at 1 µM [3]	remaining binding at 1 µM [4]	remaining binding at 1 µM [5]
Clc1cc(NCC2CC2)c2ncc(-c3ccc4[nH]ncc4c3)n2n1 [compound 2, 6-Chloro-N-(cyclopropylmethyl)-3-(1H-indazol-5-yl)imidazo[1,2-b]pyridazin-8-amine]	82%	64%	79%	91%	100%
O=C(CN1CCOCC1)N[C@H]1CC[C@H](Nc2cc(Cl)nn3c(-c4ccc5[nH]ncc5c4)cnc23)CC1 [compound 26]	92%	61%	93%	80%	88%
CN1CCC(CNc2cc(Cl)nn3c(-c4cc5nc(Nc6ccccc6)[nH]c5cc4F)cnc23)CC1 [compound 31, 6-Chloro-3-(6-fluoro-2-(phenylamino)-1H-benzo[d]imidazol-5-yl)-N-((1-methylpiperidin-4-yl)methyl)imidazo[1,2-b]pyridazin-8-amine]	73%	100%	82%	100%	88%
